Reference: patent US11234982B2, “Methods for treating ocular surface pain” (NOVARTIS AG, priority 2019, dated 2022)

Key:
[1] = tested on: healthy volunteers; assay: First in human study Part 2: MAD, incidence of adverse events and MTD; format: in vivo; conditions: for AEs leading to discontinuation of: nE / AEs leading to discontinuation of: nS (%) / AEs of Mild severity: nE / AEs of Mild severity: nS (%) / AEs of Moderate: nE / AEs of Moderate: nS (%) / AEs, Subjects with AEs: nE (AE events) / AEs, Subjects with AEs: nS (%) (subjects with at least one AE) / Serious AEs: nE / Serious AEs: nS (%) / Study drug-related AEs: nE / Study drug-related AEs: nS (%) / Study-drug related AEs (last line of Table 2): nE / Study-drug related AEs (last line of Table 2): nS (%): MAD, N = 6
Experimental: (§1) Part 2 tested multiple ascending doses (MAD) of compound I, administering (i) 1 drop of 0.15%, 1.5%, 2.5%, 4 times daily (every 6 hours) for 7 days or (ii) 1 drop of 2.5%, 8 times daily (every 3 hours) for 7 days (supra-therapeutic dose) as eye drops.
Safety assessments: Safety assessments consisted of collecting all adverse events (AEs), serious adverse events (SAEs), including systemic and ocular adverse events, along with their severity and relationship to study drug. Systemic safety assessments included regular monitoring of hematology, blood chemistry and urinalysis performed at study center and regular assessments of physical examination, vital signs (systolic and diastolic blood pressure, pulse rate, and body temperature), ECG, pregnancy and assessments of fertility and hand immersion test at 49° C. during MAD part. Ocular safety assessments included early treatment diabetic retinopathy study (ETDRS) visual acuity, intraocular pressure, slit-lamp biomicroscopy, corneal staining and dilated fundus exam.
Inclusion Criteria: • Written informed consent was obtained before any assessment was performed. • Healthy male and female subjects aged 18 to 50 years (inclusive), and in good health as determined by past medical history, physical examination, vital signs, ECG, and laboratory tests at Screening. • At Screening, and Baseline, vital signs (systolic and diastolic blood pressure (BP) and pulse rate) were assessed in the sitting position after the subject had rested for at least 3 minutes and again after 3 minutes in the standing position. […] BMI=Body weight (kg)/[Height (m)]^2 • Subjects who were able to communicate well with the Investigator, to understand and comply with the requirements of the study. • For Part 3, subjects Baseline levels of eye sensitivity were to be in the range of 50 to 60 mm (inclusive) as measured by the Cochet-Bonnet esthesiometer.
History of any chronic eye disease other than refractive error, incipient cataract, strabismic amblyopia, or anisometropic amblyopia. Subjects with a history of acute eye disease (such as infection, corneal abrasion or allergy) within the past 6 months from Screening were eligible if the disease was not active. • Any currently active ocular condition that required use of topical eye drops. • Subjects using continuous positive airway pressure or other sleep apnea devices.

[2] = First in human study plasma pharmacokinetics; format: in vivo
Experimental: This example describes a first-in-human study of compound I conducted in healthy volunteers. A total of 54 subjects were administered to study medication. Part 1 of the first in human study administered single ascending doses of 0.15%, 1.5%, 2.5% w/v (1 drop) of compound I in an eye drop.
as §1
Accumulation of compound I at steady-state was minor (˜1.7-fold) following administration of 0.15%, 1.5% or 2.5% suspension 4 times daily and also minor (˜1.3-fold) following 2.5% 8 times daily for 7 days.

With `CC(C)c1nc2cc(O)ccc2c(=O)n1-c1ccc(C#N)cc1` [Compound I, 4-(7-hydroxy-2-isopropyl-4-oxo-4H-quinazolin-3-yl)-benzonitrile] the “Dose limiting adverse events” value ([1]; 2.5%, 8 times daily for 7 days) was “No dose limiting adverse events were identified”, the “AEs leading to discontinuation of: nE” value ([1]; 0.15% 4 times daily for 7 days) was 0 and the “AEs leading to discontinuation of: nS (%)” value (“AEs leading … (%)” below) ([1]; 0.15% 4 times daily for 7 days) was 0 (0.0) nS (%). The “AEs of Mild severity: nE” value ([1]; 0.15% 4 times daily for 7 days) was 6, the “AEs of Mild severity: nS (%)” value ([1]; 0.15% 4 times daily for 7 days) was 3 (50.0) nS (%) and the “AEs of Moderate: nE” value ([1]; 0.15% 4 times daily for 7 days) was 0. For the same compound, the “AEs of Moderate: nS (%)” value ([1]; 0.15% 4 times daily for 7 days) was 0 (0.0) nS (%), the “AEs, Subjects with AEs: nE (AE events)” value ([1]; 0.15% 4 times daily for 7 days) was 6 and the “AEs, Subjects with AEs: nS (%) (subjects with at least one AE)” value (“AEs, Subjects with AEs: nS (%)” below) ([1]; 0.15% 4 times daily for 7 days) was 3 (50.0) nS (%). The “Serious AEs: nE” value ([1]; 0.15% 4 times daily for 7 days) was 0, 0, the “Serious AEs: nS (%)” value ([1]; 0.15% 4 times daily for 7 days) was 0, 0 nS (%) and the “Study drug-related AEs: nE” value ([1]; 0.15% 4 times daily for 7 days) was 5. The “Study drug-related AEs: nS (%)” value ([1]; 0.15% 4 times daily for 7 days) was 2 (33.3) nS (%), the “Study-drug related AEs (last line of Table 2): nE” value ([1]; 0.15% 4 times daily for 7 days) was 0 and the “Study-drug related AEs (last line of Table 2): nS (%)” value (“Study-drug related AEs … (%)” for short) ([1]; 0.15% 4 times daily for 7 days) was 0 (0.0) nS (%). The “AEs leading to discontinuation of: nE” value ([1]; 1.5% 4 times daily for 7 days) was 0, the “AEs leading … (%)” value ([1]; 1.5% 4 times daily for 7 days) was 0 (0.0) nS (%) and the “AEs of Mild severity: nE” value ([1]; 1.5% 4 times daily for 7 days) was 11. For the same compound, the “AEs of Mild severity: nS (%)” value ([1]; 1.5% 4 times daily for 7 days) was 5 (83.3) nS (%), the “AEs of Moderate: nE” value ([1]; 1.5% 4 times daily for 7 days) was 1 and the “AEs of Moderate: nS (%)” value ([1]; 1.5% 4 times daily for 7 days) was 1 (16.7) nS (%). For the same compound, the “AEs, Subjects with AEs: nE (AE events)” value ([1]; 1.5% 4 times daily for 7 days) was 12, the “AEs, Subjects with AEs: nS (%)” value ([1]; 1.5% 4 times daily for 7 days) was 5 (83.3) nS (%) and the “Serious AEs: nE” value ([1]; 1.5% 4 times daily for 7 days) was 0. For the same compound, the “Serious AEs: nS (%)” value ([1]; 1.5% 4 times daily for 7 days) was 0 (0.0) nS (%), the “Study drug-related AEs: nE” value ([1]; 1.5% 4 times daily for 7 days) was 9 and the “Study drug-related AEs: nS (%)” value ([1]; 1.5% 4 times daily for 7 days) was 3 (50.0) nS (%). For the same compound, the “Study-drug related AEs (last line of Table 2): nE” value ([1]; 1.5% 4 times daily for 7 days) was 0, the “Study-drug related AEs … (%)” value ([1]; 1.5% 4 times daily for 7 days) was 0 (0.0) nS (%) and the “AEs leading to discontinuation of: nE” value ([1]; 2.5% 4 times daily for 7 days) was 1, 1. For the same compound, the “AEs leading … (%)” value ([1]; 2.5% 4 times daily for 7 days) was 1, 1 nS (%), the “AEs of Mild severity: nE” value ([1]; 2.5% 4 times daily for 7 days) was 3 and the “AEs of Mild severity: nS (%)” value ([1]; 2.5% 4 times daily for 7 days) was 2 (33.3) nS (%). For the same compound, the “AEs of Moderate: nE” value ([1]; 2.5% 4 times daily for 7 days) was 1, the “AEs of Moderate: nS (%)” value ([1]; 2.5% 4 times daily for 7 days) was 1 (16.7) nS (%) and the “AEs, Subjects with AEs: nE (AE events)” value ([1]; 2.5% 4 times daily for 7 days) was 4. The “AEs, Subjects with AEs: nS (%)” value ([1]; 2.5% 4 times daily for 7 days) was 2 (33.3) nS (%), the “Serious AEs: nE” value ([1]; 2.5% 4 times daily for 7 days) was 0 and the “Serious AEs: nS (%)” value ([1]; 2.5% 4 times daily for 7 days) was 0 (0.0) nS (%). The “Study drug-related AEs: nE” value ([1]; 2.5% 4 times daily for 7 days) was 4, the “Study drug-related AEs: nS (%)” value ([1]; 2.5% 4 times daily for 7 days) was 2 (33.3) nS (%) and the “Study-drug related AEs (last line of Table 2): nE” value ([1]; 2.5% 4 times daily for 7 days) was 1. The “Study-drug related AEs … (%)” value ([1]; 2.5% 4 times daily for 7 days) was 1 (16.7) nS (%), the “AEs leading to discontinuation of: nE” value ([1]; 2.5% 8 times daily for 7 days) was 0 and the “AEs leading … (%)” value ([1]; 2.5% 8 times daily for 7 days) was 0 (0.0) nS (%). For the same compound, the “AEs of Mild severity: nE” value ([1]; 2.5% 8 times daily for 7 days) was 3, the “AEs of Mild severity: nS (%)” value ([1]; 2.5% 8 times daily for 7 days) was 2 (33.3) nS (%) and the “AEs of Moderate: nE” value ([1]; 2.5% 8 times daily for 7 days) was 0. For the same compound, the “AEs of Moderate: nS (%)” value ([1]; 2.5% 8 times daily for 7 days) was 0 (0.0) nS (%), the “AEs, Subjects with AEs: nE (AE events)” value ([1]; 2.5% 8 times daily for 7 days) was 3 and the “AEs, Subjects with AEs: nS (%)” value ([1]; 2.5% 8 times daily for 7 days) was 2 (33.3) nS (%). For the same compound, the “Serious AEs: nE” value ([1]; 2.5% 8 times daily for 7 days) was 0, the “Serious AEs: nS (%)” value ([1]; 2.5% 8 times daily for 7 days) was 0 (0.0) nS (%) and the “Study drug-related AEs: nE” value ([1]; 2.5% 8 times daily for 7 days) was 2. The “Study drug-related AEs: nS (%)” value ([1]; 2.5% 8 times daily for 7 days) was 1 (16.7) nS (%), the “Study-drug related AEs (last line of Table 2): nE” value ([1]; 2.5% 8 times daily for 7 days) was 0 and the “Study-drug related AEs … (%)” value ([1]; 2.5% 8 times daily for 7 days) was 0 (0.0) nS (%). The “Severity of adverse events of suspected causality to compound I” value ([1]; Parts 1, 2 and 3, exception in the 2.5% 4 times daily cohort) was “mild severity, except for moderate severity eye irritation”, the “Most frequent ocular adverse events” value ([1]; compound I treated, compared with placebo) was “corneal staining, hyperemia and mild anterior chamber inflammation, in levels similar to placebo” and the “Maximum Tolerated Dose (MTD)” value ([1]; maximum feasible concentration, 8 times daily for 7 days, eye drops) was 2.5%. For the same compound, the Accumulation at steady-state ([2]; 0.15%, 1.5% or 2.5% suspension 4 times daily) was roughly 1.7 fold, the Accumulation at steady-state ([2]; 2.5%, 8 times daily for 7 days) was roughly 1.3 fold and the “Increase in systemic exposure with dose” value ([2]; dose from 0.15% to 2.5%) was “less than dose-proportional increase”. For the same compound, the “Absorption into systemic circulation (plasma PK profile)” value ([2]; single and multiple topical ocular suspension doses 0.15%, 1.5%, 2.5%) was “rapid absorption”.
